Experimental findings from ChEMBL document CHEMBL4376882, “Photodynamic Therapy for ras-Driven Cancers: Targeting G-Quadruplex RNA Structures with Bifunctional Alkyl-Modified Porphyrins” (J Med Chem, 2020) are described below.

Active and inactive are the calls of the source. No cut-off for these calls is given here.

The nature of series [1]: Aggregation property of compound at > 40 degree C. In kind it is physicochemical.
The subject of series [2] is PANC-1. The series is described as follows: Induction of apoptosis in human PANC1 cells assessed as viable cells at 10 nM and photoirradiated at 7.2 J/cm2 measured after 6 to 24 hrs by annexin-V-propidium iodide staining based FACScalibur flow cytometry analysis (reference value: 91.9 %). In kind it is functional. To be noted: PANC-1, light or radiation study, read-out: Activity. (Flow cytometry measures light scatter and fluorescence of single cells or particles in a stream.)

Series [3] relates to PANC-1. The series is described as follows: Induction of apoptosis in human PANC1 cells assessed as late apoptotic cells at 10 nM and photoirradiated at 7.2 J/cm2 measured after 6 to 24 hrs by annexin-V-propidium iodide staining based FACScalibur flow cytometry analysis (reference value: 2.7 %). In kind it is functional.
The subject of series [4] is PANC-1. The series is described as follows: Induction of apoptosis in human PANC1 cells assessed as late apoptotic cells at 5 nM and photoirradiated at 7.2 J/cm2 measured after 6 to 24 hrs in presence of NAC by annexin-V-propidium iodide staining based FACScalibur flow cytometry analysis (reference value: 1.3 %). The series is classed as functional.
Series [5] deals with PANC-1. The series is described as follows: Induction of apoptosis in human PANC1 cells assessed as necrotic cells at 10 nM and photoirradiated at 7.2 J/cm2 measured after 6 to 24 hrs in presence of NAC by annexin-V-propidium iodide staining based FACScalibur flow cytometry analysis (reference value: 1 %). The series is classed as functional.
The subject of series [6] is PANC-1. The series is described as follows: Induction of apoptosis in human PANC1 cells assessed as late apoptotic cells at 10 nM and photoirradiated at 7.2 J/cm2 measured after 6 to 24 hrs in presence of NAC by annexin-V-propidium iodide staining based FACScalibur flow cytometry analysis (reference value: 1.3 %). In kind it is functional.
Series [7] addresses GTPase NRas (Homo sapiens) (UniProt P01111). The series is described as follows: Inhibition of NRAS in human PANC1 cells assessed as downregulation of NRAS expression at 15 nM after 4 hrs by Western blot analysis. In kind it is cell-based.

Chain of GTPase NRas (Homo sapiens) (P01111 whole entry): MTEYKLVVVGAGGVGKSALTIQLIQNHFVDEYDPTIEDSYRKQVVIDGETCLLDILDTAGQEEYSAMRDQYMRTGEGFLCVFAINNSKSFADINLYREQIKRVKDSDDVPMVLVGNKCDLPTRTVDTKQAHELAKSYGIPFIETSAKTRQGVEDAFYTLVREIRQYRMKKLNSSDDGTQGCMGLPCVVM

Take `CCCCCCCCCCCCCC[n+]1ccc(-c2c3nc(c(-c4cc[n+](C)cc4)c4ccc([nH]4)c(-c4cc[n+](C)cc4)c4nc(c(-c5cc[n+](C)cc5)c5ccc2[nH]5)C=C4)C=C3)cc1.[I-].[I-].[I-].[I-]`: the Activity result is given as “Active” in series [1]; 10.9% in the series with PANC-1 [3]; 1.1% in the series on PANC-1 [4]; 2.3% with PANC-1 [5]; 3.1% with PANC-1 [6]. Moreover, the viability at 0.01 µM in the series with PANC-1 [2] is 82.1%. In addition, the inhibition entry in series [7] is “inactive”.
